{
  "source": "ChEMBL document CHEMBL1221372",
  "about": "“Design and synthesis of new adamantyl-substituted antileishmanial ether phospholipids” (Bioorg Med Chem Lett, 2010)",
  "key": {"THP-1": {"system": "THP-1", "test": "Cytotoxicity against human THP1 cells using propidium iodide and SYBR-14 staining after 72 hrs by flow cytometry", "type": "cell-based", "conditions": "THP-1, 72 h"}, "Leishmania infantum [1]": {"system": "Leishmania infantum", "test": "Antileishmanial activity against intracellular amastigote form of Leishmania infantum MK-1 infected in human THP1 cells after 48 hrs using giemsa staining", "type": "functional, organism-based", "conditions": "MK-1, THP-1, 48 h"}, "Leishmania infantum [2]": {"system": "Leishmania infantum", "test": "Antileishmanial activity against intracellular amastigote form of Leishmania infantum MON 235 infected in human THP1 cells after 48 hrs using giemsa staining", "type": "functional, organism-based", "conditions": "MON 235, THP-1, 48 h"}, "[3]": {"test": "Selectivity index, ratio of IC50 for human THP1 cells to IC50 for intracellular amastigote form of Leishmania infantum MON 235", "type": "toxicity, cell-based, THP-1", "conditions": "read-out: Ratio IC50"}, "Homo sapiens": {"species": "Homo sapiens", "test": "Half life in human", "type": "ADME, organism-based", "conditions": "in vivo"}, "[4]": {"test": "Selectivity index, ratio of IC50 for human THP1 cells to IC50 for intracellular amastigote form of Leishmania infantum MK-1", "type": "toxicity, cell-based, THP-1", "conditions": "read-out: Ratio IC50"}},
  "data": [
    {"molecule": "CCCCCCOCCC12CC3CC(C1)CC(CCOP(=O)([O-])OCC[N+](C)(C)C)(C3)C2", "values": [
      {"measurement": "IC50", "setting": "THP-1", "value": "> 50", "unit": "µM"},
      {"measurement": "IC50", "setting": "Leishmania infantum [1]", "value": 17.1, "unit": "µM"}
    ]},
    {"molecule": "C[N+](C)(C)CC#CCOP(=O)([O-])OCCCCCCCCCCC=C1C2CC3CC(C2)CC1C3", "values": [
      {"measurement": "IC50", "setting": "Leishmania infantum [2]", "value": 5.2, "unit": "µM"},
      {"measurement": "selectivity ratio", "setting": "[3]", "value": 14.5}
    ]},
    {"molecule": "CCCCCCCCCCCCOCCC12CC3CC(C1)CC(CCOP(=O)([O-])OCC[N+](C)(C)C)(C3)C2", "values": [
      {"measurement": "IC50", "setting": "THP-1", "value": 21.4, "unit": "µM"},
      {"measurement": "IC50", "setting": "Leishmania infantum [1]", "value": "> 21.4", "unit": "µM"}
    ]},
    {"molecule": "C[N+]1(CCOP(=O)([O-])OCCCCCCCCCCC=C2C3CC4CC(C3)CC2C4)CCCCC1", "values": [
      {"measurement": "IC50", "setting": "Leishmania infantum [2]", "value": 5.69, "unit": "µM"},
      {"measurement": "selectivity ratio", "setting": "[3]", "value": 29.6}
    ]},
    {"molecule": "C[N+]1(C)C2CCC1CC(=CCOP(=O)([O-])OCCCCCCCCCCC=C1C3CC4CC(C3)CC1C4)C2", "values": [
      {"measurement": "IC50", "setting": "Leishmania infantum [2]", "value": 9.1, "unit": "µM"},
      {"measurement": "selectivity ratio", "setting": "[3]", "value": 16.2}
    ]},
    {"molecule": "CCCCOCCC12CC3CC(C1)CC(CCOP(=O)([O-])OCC[N+](C)(C)C)(C3)C2", "values": [
      {"measurement": "IC50", "setting": "THP-1", "value": "> 50", "unit": "µM"},
      {"measurement": "IC50", "setting": "Leishmania infantum [1]", "value": "> 50", "unit": "µM"}
    ]},
    {"molecule": "CCCCCCCCCCCCCCCCOP(=O)([O-])OCC[N+](C)(C)C", "note": "[MILTEFOSINE]", "values": [
      {"measurement": "IC50", "setting": "Leishmania infantum [1]", "value": 2.56, "unit": "µM"},
      {"measurement": "t1/2", "setting": "Homo sapiens", "value": 1.67, "unit": "h"},
      {"measurement": "IC50", "setting": "Leishmania infantum [2]", "value": 6.7, "unit": "µM"},
      {"measurement": "selectivity ratio", "setting": "[3]", "value": 8.7},
      {"measurement": "selectivity ratio", "setting": "[4]", "value": 11.2}
    ]},
    {"molecule": "C[N+](C)(C)[C@H]1CCCC[C@@H]1OP(=O)([O-])OCCCCCCCCCCC=C1C2CC3CC(C2)CC1C3", "values": [
      {"measurement": "IC50", "setting": "THP-1", "value": 39.7, "unit": "µM"},
      {"measurement": "IC50", "setting": "Leishmania infantum [2]", "value": 0.8, "unit": "µM"},
      {"measurement": "selectivity ratio", "setting": "[3]", "value": 49.6}
    ]},
    {"molecule": "C[N+](C)(C)CCOP(=O)([O-])OCCC12CC3CC(CC(CCOCc4ccccc4)(C3)C1)C2", "values": [
      {"measurement": "IC50", "setting": "THP-1", "value": "> 50", "unit": "µM"},
      {"measurement": "IC50", "setting": "Leishmania infantum [1]", "value": 41.8, "unit": "µM"}
    ]},
    {"molecule": "CCCCCCCCOCCC12CC3CC(C1)CC(CCOP(=O)([O-])OCC[N+](C)(C)C)(C3)C2", "values": [
      {"measurement": "IC50", "setting": "THP-1", "value": "> 50", "unit": "µM"},
      {"measurement": "IC50", "setting": "Leishmania infantum [1]", "value": 16.2, "unit": "µM"}
    ]},
    {"molecule": "C[N+]1(CCOP(=O)([O-])OCCCCCCCCCCC=C2C3CC4CC(C3)CC2C4)CCOCC1", "values": [
      {"measurement": "IC50", "setting": "Leishmania infantum [2]", "value": 1.34, "unit": "µM"},
      {"measurement": "selectivity ratio", "setting": "[3]", "value": 27.9}
    ]},
    {"molecule": "C[N+](C)(C)[C@H]1CCC[C@@H]1OP(=O)([O-])OCCCCCCCCCCC=C1C2CC3CC(C2)CC1C3", "values": [
      {"measurement": "IC50", "setting": "THP-1", "value": 75, "unit": "µM"},
      {"measurement": "IC50", "setting": "Leishmania infantum [2]", "value": 0.3, "unit": "µM"},
      {"measurement": "selectivity ratio", "setting": "[3]", "value": 250}
    ]},
    {"molecule": "C[N+](C)(C)CCOP(=O)([O-])OCCCCCCCCCCC=C1C2CC3CC(C2)CC1C3", "values": [
      {"measurement": "IC50", "setting": "Leishmania infantum [2]", "value": 0.031, "unit": "µM"},
      {"measurement": "selectivity ratio", "setting": "[3]", "value": 1920}
    ]},
    {"molecule": "CCCCCCCCCCOCCC12CC3CC(C1)CC(CCOP(=O)([O-])OCC[N+](C)(C)C)(C3)C2", "values": [
      {"measurement": "IC50", "setting": "THP-1", "value": 18.4, "unit": "µM"},
      {"measurement": "IC50", "setting": "Leishmania infantum [1]", "value": "> 18.4", "unit": "µM"}
    ]}
  ]
}
